Blank lines part the entries; values can stand above or below the compound they belong to.
Assays:
wild-type APOBEC3A = target: T1, wild-type APOBEC3A (Homo sapiens, UniProt P31941); test: NMR assay: wild-type APOBEC3A-catalysed deamination of dC-hairpin-3, Lambert's W function; format: biochemical; settings: pH 7.4, 140 nM enzyme, 500 μM dC-hairpin-3
T1 construct: His7 (C); made in house
Method: Inhibitors were tested in the NMR assay monitoring APOBEC3A-catalysed deamination of dC-hairpin-3. Deamination data was analysed using Lambert's W function as described in Example 5.

A3BCTD-QM-ΔL3-AL1swap [1] = test: NMR assay: inhibition of A3BCTD-QM-ΔL3-AL1swap-catalyzed deamination of a linear substrate (initial rates); format: biochemical, human; settings: for Ki / Vmax: 5′-AT3dCAT3 substrate, 50 nM enzyme; for inhibition effect: Km of 5′-AT3dCAT3 (150 μM) compared with apparent Ki: non-linear regression analysis
Method: FIG. 6. is a set of graphs showing inhibition of A3BCTD-QM-ΔL3-AL1swap-catalyzed deamination of 5′-T4CAT by dZ/FdZ-containing linear and cross-linked oligos. Initial rate of deamination was measured under the following experimental conditions: 400 μM of 5′-T4CAT, 8 μM (A, B) or 4 μM (C) of dZ/FdZ-containing oligos, 300 nM (A, B) or 200 nM (C) of A3BCTD-QM-ΔL3-AL1swap in a 50 mM sodium phosphate buffer (pH 6.0) containing 100 mM NaCl, 2.5 mM β-mercaptoethanol, 0.1 M EDTA, 50 μM 3-(trimethylsilyl)-2,2,3,3-tetradeuteropropionic acid (TSP) at 25° C. Error bars are estimated standard deviations from triplicate measurements.
FIG. 13 is a graph showing the inhibition of A3BCTD-QM-ΔL3-AL1swap-catalyzed deamination of 5′-T4CAT by linear oligos containing dZ, 34R, 34S and 46. Initial rate of deamination was measured under the following experimental conditions: 400 μM of 5′-T4CAT, at oligo concentration as indicated, 300 nM of A3BCTD-QM-ΔL3-AL1swap in a 50 mM sodium phosphate buffer (pH 6.0) containing 100 mM NaCl, 2.5 mM β-mercaptoethanol, 0.1 M EDTA, 50 μM 3-(trimethylsilyl)-2,2,3,3-tetradeuteropropionic acid (TSP) and 20% D2O at 25° C. Error bars are estimated standard deviations from triplicate measurements.
The inhibition potential of cross-linked oligos was investigated by changing dC to dZ or FdZ in these constructs. The NMR assay described in Example 4 was used to compare the internally cross-linked dZ/FdZ-containing oligos with a linear DNA inhibitor containing dZ/FdZ (dZ-linear is 5′-AT3dZAT3, FdZ-linear is 5′-AT3FdZAT3) that were characterized earlier.^1-2 Residual activity of A3BCTD-QM-ΔL3-AL1swap on the unmodified oligo (5′-T4dCAT) as a substrate in the presence of a known concentration of dZ/FdZ-containing inhibitors (linear and cross-linked) was measured using NMR assay.
(§1) For determination of inhibition constants (KI) of inhibitors the inventors first evaluated kinetic parameters of A3BCTD-QM-ΔL3-AL1swap on two DNA substrates (Table 5), which were used to detect the residual deamination rate in the presence of inhibitors (Table 6). Fitting the experimental data by non-linear least squares using a global fit provided similar values of kinetic parameters to those obtained by the linearized Lineweaver-Burk plot (Table 5). Then, the inhibition constants for strongest cross-linked inhibitors were calculated by several methods assuming a competitive mode of inhibition^1 (Table 6) based on experiments in which the concentration of the individual inhibitor was varied, and the residual deamination initial rate was measured.
Residual activity of A3BCTD-QM-ΔL3-AL1swap on the unmodified oligo (5′-T4CAT) as a substrate in the presence of a known concentration of inhibitors was measured using the NMR assay as described in Example 5.

A3BCTD-QM-ΔL3-AL1swap [2] = test: Isothermal titration calorimetry (ITC), binding to A3BCTD-QM-ΔL3-AL1swap; parameters: species or system human; settings: ITC buffer 3 (Na+/K+ phosphate, pH 6.0, 200 mM trimethylamine N-oxide), 25° C
Text: (§2) The inventors used isothermal titration calorimetry (ITC) to determine binding of the cross-linked oligos to A3 enzymes, specifically to A3A-E72A, where the active-site glutamic acid is replaced with alanine, and to the catalytically competent A3BCTD-QM-ΔL3-AL1swap and compared this binding to that of linear oligos.
For oligos containing dZ, catalytically active A3BCTD-QM-ΔL3-AL1swap was used, as it has the active-site glutamic acid required for protonation of N3 in dZ, which activates C4 in dZ to accept nucleophilic OH^−/H2O coordinated to the Zn^2+, which converts dZ into a transition-state or an intermediate analogue of cytidine deamination.^8
For A3BCTD-QM-ΔL3-AL1swap we used ITC buffer 3: 50 mM Na^+/K^+ phosphate, pH 6.0, 200 mM trimethylamine N-oxide dihydrate, 2.5 mM TCEP, 200 μM EDTA. Data evaluation was performed with the software provided by the supplier of MicroCal ITC200.

human CDA = human CDA (Homo sapiens, UniProt P32320); test: UV-Vis based deamination assay against human CDA; format: biochemical; settings: 27 nM human CDA; for Ki: 2 mM dC, absorbance at 286 nm, Lambert's W function
Method: FIG. 12 is a graph showing the initial rate of human CDA-catalysed deamination of 2′-deoxycytidine (dC) in the absence (no inhibitor) and presence of dZ, 34R and 34S. Conditions: 100 μM dC as a substrate, using different concentrations of inhibitors, 27 nM human CDA in 20 mM Na-phosphate buffer, pH 6.0 supplemented with 100 mM NaCl at 25° C. Absorbance was measured at 286 nm at the start of deamination. Samples labelled as “preincubated” refer to experiments when the enzyme was preincubated for 5 min with inhibitors and then 100 μM dC was added.
The seven-membered ring-containing nucleosides synthesized were tested for their inhibition potential against human CDA enzyme by a UV-Vis based deamination assay. All data were obtained by monitoring absorbance of 2′-deoxycytidine at 286 nm and 25° C., where the deamination of cytosine leads to a decrease in absorption. For nucleosides 34R and 34S, the condition of the assay used was 27 nM human CDA and 100 μM dC as a substrate in 20 mM Na-phosphate buffer, 100 mM NaCl at pH 6.0; an average of 8 measurements was done for each nucleoside. As the original 7-membered ring nucleosides were reported as slow-binding inhibitors of CDA,^10 preincubation conditions of an inhibitor with CDA were also tested for the assay and labelled as ‘preincubation’. Here, the nucleosides were preincubated with the enzyme for 5 min and then 100 μM dC substrate was added to start the measurements (FIG. 12).

A3A-E72A = A3A-E72A (Homo sapiens, UniProt P31941, E72A); test: Isothermal titration calorimetry (ITC), binding to A3A-E72A; settings: 25° C
Method: as §2
Desalted unmodified DNA oligonucleotides were purchased (Integrated DNA Technologies) at 1 or 5 μmol synthesis scale and dissolved in one of the buffers described below to give 10 mM solutions. ITC experiments were conducted at 25° C. using a MicroCal ITC200 (now Malvern Instruments) isothermal titration calorimeter. […] The ratio of protein to oligonucleotide concentration is usually 1:10. Titrations are made up of 30 individual additions. To prevent protein precipitation during the long time-scale of the experiment it was necessary to used improved ITC buffers. ITC buffer 1: 50 mM MES, pH 6.0, 100 mM NaCl, 200 μM EDTA, 1 mM β-mercaptoethanol and ITC buffer 2: 50 mM Na^+/K^+ phosphate, pH 6.0, 50 mM NaCl, 50 mM choline acetate, 2.5 mM TCEP, 200 μM EDTA with 30 mg/mL BSA. After preparation, ITC buffer 2 was frozen and defrosted before the experiments. ITC buffer 2* is freshly prepared buffer 2.
In contrast, A3A-E72 Å was used, particularly for oligos containing dC so that the complications of deamination can be avoided, although this mutation, notwithstanding no change to active-site structure, does cause a small but significant diminution in ligand binding^1 through loss of hydrogen bonding to the ligand. The inventors expect that the binding of inactivated A3BCTD-QM-ΔL3-AL1swap to the substrate will be close to or even worse than Km of 200 μM, which places substrate binding outside ITC applicability. One should emphasise that the composition of buffers used for NMR kinetic and ITC binding experiments are different, mainly because proteins in ITC experiments need to be at much higher concentration than for kinetic assays (10-100 μM for ITC versus 20-300 nM in kinetic experiments).

A3BCTD-QM-ΔL3-AL1swap [3] = test: Real-time NMR assay: deamination of DNA substrates by A3BCTD-QM-ΔL3-AL1swap; format: biochemical, human
Method: FIG. 5 is a set of graphs showing the initial rate of A3BCTD-QM-ΔL3-AL1swap catalyzed deamination of terminally (A), internally (B-D) cross-linked oligos and a dC-hairpin in comparison with the linear substrate. Substrate concentrations are 100 μM in (A and B), 800 μM in (C) and 400 μM in (D). Enzyme concentrations are 50 nM in (A and B) and 300 nM in (C) and 100 nM in (D). Buffers are 50 mM citrate-phosphate (pH 5.5 for A-C) and 50 mM Na-phosphate (pH 6.0 for D), 200 mM NaCl, 2 mM β-mercaptoethanol, 200 μM 4,4-dimethyl-4-silapentane-1-sulfonic acid (DSS) and 10% D2O at 25° C. Error bars are estimated standard deviations from triplicate measurements.
Real-time NMR assays are advantageous because they are direct, utilizing only A3 enzymes and oligos in a suitable buffer system, in contrast to many fluorescence-based assays where a secondary enzyme and a fluorescently modified oligo are used. The NMR-based assay described herein allows a Michaelis-Menten kinetic model to be used to characterize both A3 substrates and inhibitors based on direct determination of the initial velocity of deamination of various ssDNA substrates (including modified substrates) in the presence of A3 enzymes.
The A3 enzyme used in the experiments detailed herein is the well-characterized and very active A3BCTD-QM-ΔL3-AL1swap,^1 where loop 3 is deleted and loop 1 is replaced with the corresponding loop 1 from A3A in addition to four point mutations remote to the enzyme's active site. […] Recent work by the inventors on the related enzyme, A3G, has shown that inhibition of the C-terminal catalytic domain is mirrored by the inhibition of the full-length enzyme, validating their approach of using catalytic C-terminal domains for inhibitor development.^2
Using the 9-mer oligonucleotide ATTTCATTT (5′-AT3dCAT3) (SEQ ID NO: 1) as the standard substrate, the inventors compared the deamination of both terminally and internally cross-linked oligos prepared as above using a previously described real-time NMR assay.^1, 45 For the terminally cross-linked oligos, decreased rates of deamination were observed from 9-mer to 5-mer. The number of phosphates of the modified 9-mer sequence is the same as for the 9-mer DNA control (FIG. 5A). […] The next internal cross-link 2 was designed based on modified nucleotides dU^E and dA^N3. […] However, a marked 2.3 times increase in deamination rate was detected for oligo dC[C^N3(−2),H^E1(+1)]X having internal cross-link 3 connecting −2 and +1 positions in the DNA sequence (FIG. 5D). It is surprising that synthetic oligo dC[C^N3(−2),H^E1(+1)]X was deaminated even faster than a native DNA hairpin.
as §1

[4] = Lineweaver-Burk plot for the substrate/Dixon plot for the inhibitor
[5] = Non-linear regression analysis for both substrate and inhibitor
[6] = Linear analysis (Lineweaver-Burk plot)

Sequence of human CDA (P32320 whole entry): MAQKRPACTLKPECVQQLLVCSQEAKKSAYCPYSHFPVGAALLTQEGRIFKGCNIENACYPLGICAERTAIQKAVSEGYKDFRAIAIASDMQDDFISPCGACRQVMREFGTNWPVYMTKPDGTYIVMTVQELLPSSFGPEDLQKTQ
Sequence of A3A-E72A (P31941 whole entry E72A): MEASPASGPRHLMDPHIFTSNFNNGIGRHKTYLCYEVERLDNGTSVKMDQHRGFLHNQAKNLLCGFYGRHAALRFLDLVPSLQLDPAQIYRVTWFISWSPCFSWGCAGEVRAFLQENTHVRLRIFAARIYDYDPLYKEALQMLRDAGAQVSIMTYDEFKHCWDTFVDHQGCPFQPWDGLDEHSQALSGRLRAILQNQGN
T1 sequence (P31941 whole entry): as the sequence (P31941 whole entry E72A) above, with A72E counted along it

- Ki (wild-type APOBEC3A): 290 ± 40 nM
Compound: 5'-TGCGCTT-46-GCGCT [46-hairpin-3]

- Ki (A3BCTD-QM-ΔL3-AL1swap [1]; [4]): 2.1 ± 0.8 µM
- Ki (A3BCTD-QM-ΔL3-AL1swap [1]; [5]): 4.4 ± 0.7 µM
- inhibition effect: Km of 5′-AT3dCAT3 (150 μM) compared with apparent Ki (A3BCTD-QM-ΔL3-AL1swap [1]): 35 fold
- Ki (wild-type APOBEC3A): 2400 ± 940 nM
Compound: 5′-AT3FdZAT3 [FdZ-linear]
- inhibition of deamination of 5′-T4CAT (in words) (A3BCTD-QM-ΔL3-AL1swap [1]; 400 μM 5′-T4CAT, 8 or 4 μM oligo, 300 or 200 nM enzyme, pH 6.0 (FIG. 6)): more powerful inhibitor of A3BCTD-QM-ΔL3-AL1swap than dZ-linear oligo
- Vmax (A3BCTD-QM-ΔL3-AL1swap [1]; [5]): 0.0126 ± 0.0008 µM/s

- Kd (A3BCTD-QM-ΔL3-AL1swap [2]): 11.4 ± 2.3 µM
- Ki (A3BCTD-QM-ΔL3-AL1swap [1]; [4]): 7.5 ± 1.7 µM
- Ki (A3BCTD-QM-ΔL3-AL1swap [1]; [5]): 7 ± 1.3 µM
- inhibition effect: Km of 5′-AT3dCAT3 (150 μM) compared with apparent Ki (A3BCTD-QM-ΔL3-AL1swap [1]): 20 fold
Compound: 5′-AT3dZAT3 [dZ-linear]
- Vmax (A3BCTD-QM-ΔL3-AL1swap [1]; [5]): 0.0126 ± 0.0008 µM/s

- inhibitory potential against human CDA (human CDA; 100 μM dC, pH 6.0, 25° C, with and without 5 min preincubation (FIG. 12)): some inhibitory potential
Compound: O=C1CC[C@H](O)CCN1[C@H]1C[C@H](O)[C@@H](CO)O1 [compound 34S, 1-[2-deoxy-β-D-erythro-pentofuranosyl]-(S)-5-hydroxyazepan-2-one]

Compound: O=C1NCC=CCN1[C@H]1C[C@H](O)[C@@H](CO)O1 [compound 46, 1-[2-deoxy-β-D-erythro-pentofuranosyl]-1,3,4,7-tetrahydro-2H-1,3-diazepin-2-one]
- Ki (human CDA): 0.43 ± 0.08 µM

- Ki (human CDA): 10.7 ± 0.5 µM
Compound: O=c1ncccn1[C@H]1C[C@H](O)[C@@H](CO)O1 [dZ, 2′-deoxyzebularine]

- Kd (A3A-E72A; ITC buffer 1 (50 mM MES, pH 6.0)): 200 ± 60 nM
- Kd (A3A-E72A; ITC buffer 2 (Na+/K+ phosphate, pH 6.0, BSA; frozen and defrosted)): 120 ± 30 nM
- Kd (A3A-E72A; ITC buffer 2* (freshly prepared buffer 2)): 130 ± 30 nM
- Km (A3BCTD-QM-ΔL3-AL1swap [3]; [6]): 200 ± 30 µM
- Km (A3BCTD-QM-ΔL3-AL1swap [3]; Non-linear regression analysis): 150 µM
Compound: ATTTCATTT [5′-AT3dCAT3]
- Vmax (A3BCTD-QM-ΔL3-AL1swap [3]; [6]): 0.014 ± 0.002 µM/s
- kcat (A3BCTD-QM-ΔL3-AL1swap [3]; [6]): 0.29 ± 0.04 s⁻¹
- Vmax (A3BCTD-QM-ΔL3-AL1swap [3]; Non-linear regression analysis): 0.0126 ± 0.0008 µM/s
- kcat (A3BCTD-QM-ΔL3-AL1swap [3]; Non-linear regression analysis): 0.26 ± 0.02 s⁻¹

— patent publication US20240140983A1, “SINGLE STRANDED DNA ENZYME INHIBITORS” (MASSEY UNIVERSITY, priority 2021, published 2024)
